These results are taken from PMC4094517, “Structural Analysis and Mutant Growth Properties Reveal Distinctive Enzymatic and Cellular Roles for the Three Major L-Alanine Transaminases of Escherichia coli” (PLoS ONE, 2014).

One data set deals with T1, AlaA (Escherichia coli, UniProt P0A959).
T1 construct: full length, 405 residues, N-terminal His6-TEV tag kept (pETM11, pAlaA), expressed in E. coli BL21(DE3), homodimer about 90 kDa
Kind of data set: X-ray crystal structure, […] Å. The settings on record: covalent (internal aldimine, Schiff base with Lys240); acetate from crystallisation solution also in active site; crystals in 0.25 M lithium acetate, 22% PEG 3350, 20 °C. In kind it is binding.

Data set [1] concerns the molecule itself. Briefly: SEC; Superdex 200 10/300 GL after HisTrap, 4°C; elution mass estimated.

Turning to `Cc1ncc(COP(=O)(O)O)c(C=O)c1O` [PLP], the “X-ray crystal structure, 2.11 Å” value on AlaA is “An intact Schiff base linkage between Lys240 and PLP”.

B1: His-tagged AlaA (alanine aminotransferase AlaA of Escherichia coli) (enzyme, UniProt P0A959 1-405, looked up)
chain: MSPIEKSSKLENVCYDIRGPVLKEAKRLEEEGNKVLKLNIGNPAPFGFDAPDEILVDVIRNLPTAQGYCDSKGLYSARKAIMQHYQARGMRDVTVEDIYIGNGVSELIVQAMQALLNSGDEMLVPAPDYPLWTAAVSLSSGKAVHYLCDESSDWFPDLDDIRAKITPRTRGIVIINPNNPTGAVYSKELLMEIVEIARQHNLIIFADEIYDKILYDDAEHHSIAPLAPDLLTITFNGLSKTYRVAGFRQGWMVLNGPKKHAKGYIEGLEMLASMRLCANVPAQHAIQTALGGYQSISEFITPGGRLYEQRNRAWELINDIPGVSCVKPRGALYMFPKIDAKRFNIHDDQKMVLDFLLQEKVLLVQGTAFNWPWPDHFRIVTLPRVDDIELSLSKFARFLSGYHQL
modifications: Lys240 in Schiff base linkage with pyridoxal 5'-phosphate (LLP, Lys-PLP)
notes: AlaA, alanine aminotransferase (glutamic-pyruvic transaminase), Escherichia coli, 405-amino-acid monomer; alaA amplified from E. coli XL1-Blue genomic DNA into pETM11; pETM11 adds an N-terminal hexahistidine tag and a TEV protease cleavage site; Modelled residues 1-404 (chain A) and 2-405 (chain B); also called full-length AlaA; His6-AcTev-AlaA; source: E. coli BL21(DE3), purified (HisTrap, …)
As for B1, in data set [1], the stoichiometry N – broadly, a count of units in the complex or per binding partner – is 2.
